# Tests used:
# Assay in all cases: relative viability (nuclei count vs DMSO), 5 days (fraction); higher = more cells survive
# [1] = system: ABC-1
# Method in brief: (§1)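 After 5 days of treatment, lung cancer cells in 1536-well plates were fixed and stained in a single step (final 0.05% Triton X-100, 1% formaldehyde, 1 ug/ml Hoechst) and their nuclei counted on 4× images. Treatment had been applied by pin tool the day after seeding as one drug alone or as a fixed anchor-drug dose with five library-drug doses (not always all listed) in √10 steps. Relative viability is the nuclei count of treated wells divided by that of vehicle wells, and values are medians of duplicate plates.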
# [2] = system: CAL-12T
# Method in brief: as §1
# [3] = system: COR-L 105
# Method in brief: as §1
# [4] = system: ChaGo-K-1
# Method in brief: as §1
# [5] = system: EKVX
# Method in brief: as §1
# [6] = system: EPLC-272H
# Method in brief: as §1
# [7] = system: H3255
# Method in brief: as §1
# [8] = system: HCC-366
# Method in brief: as §1
# [9] = system: HCC-827
# Method in brief: as §1
# [10] = system: NCI-H1355
# Method in brief: as §1
# [11] = system: NCI-H1975
# Method in brief: as §1
# [12] = system: NCI-H1993
# Method in brief: as §1
# [13] = system: NCI-H2009
# Method in brief: as §1
# [14] = system: NCI-H2085
# Method in brief: as §1
# [15] = system: NCI-H2087
# Method in brief: as §1
# [16] = system: NCI-H2228
# Method in brief: as §1
# [17] = system: NCI-H2342
# Method in brief: as §1
# [18] = system: NCI-H322M
# Method in brief: as §1
# [19] = system: NCI-H441
# Method in brief: as §1
# [20] = system: NCI-H460
# Method in brief: as §1
# [21] = system: SK-MES-1
# Method in brief: as §1
compound,measurement,setting,value
CN1CCN(CCOc2cc(OC3CCOCC3)c3c(Nc4c(Cl)ccc5c4OCO5)ncnc3c2)CC1 [Saracatinib] + O=C(CCCCCCC(=O)Nc1ccccc1)NO [Vorinostat] (partner 1 µM),relative viability,[1]; first compound 0.02 µM,0.905
same,relative viability,[1]; first compound 0.2 µM,0.99
same,relative viability,[1]; first compound 0.6325 µM,1.37
same,relative viability,[1]; first compound 2 µM,0.857
same,relative viability,[2]; first compound 0.02 µM,0.804
same,relative viability,[2]; first compound 0.2 µM,0.764
same,relative viability,[2]; first compound 0.6325 µM,0.91
same,relative viability,[2]; first compound 2 µM,0.696
same,relative viability,[3]; first compound 0.02 µM,0.879
same,relative viability,[3]; first compound 0.2 µM,0.668
same,relative viability,[3]; first compound 0.6325 µM,0.819
same,relative viability,[3]; first compound 2 µM,0.625
same,relative viability,[4]; first compound 0.02 µM,0.797
same,relative viability,[4]; first compound 0.2 µM,0.55
same,relative viability,[4]; first compound 0.6325 µM,0.785
same,relative viability,[4]; first compound 2 µM,0.65
same,relative viability,[5]; first compound 0.02 µM,0.762
same,relative viability,[5]; first compound 0.2 µM,0.474
same,relative viability,[5]; first compound 0.6325 µM,0.817
same,relative viability,[5]; first compound 2 µM,0.494
same,relative viability,[6]; first compound 0.02 µM,0.306
same,relative viability,[6]; first compound 0.2 µM,0.562
same,relative viability,[6]; first compound 0.6325 µM,0.63
same,relative viability,[6]; first compound 2 µM,0.424
same,relative viability,[7]; first compound 0.02 µM,0.79
same,relative viability,[7]; first compound 0.2 µM,0.684
same,relative viability,[7]; first compound 0.6325 µM,0.965
same,relative viability,[7]; first compound 2 µM,0.337
same,relative viability,[8]; first compound 0.02 µM,0.4
same,relative viability,[8]; first compound 0.2 µM,0.135
same,relative viability,[8]; first compound 0.6325 µM,0.399
same,relative viability,[8]; first compound 2 µM,0.221
same,relative viability,[9]; first compound 0.02 µM,0.926
same,relative viability,[9]; first compound 0.2 µM,0.643
same,relative viability,[9]; first compound 0.6325 µM,0.354
same,relative viability,[9]; first compound 2 µM,0.15
same,relative viability,[10]; first compound 0.02 µM,0.668
same,relative viability,[10]; first compound 0.2 µM,0.62
same,relative viability,[10]; first compound 0.6325 µM,0.7
same,relative viability,[10]; first compound 2 µM,0.587
same,relative viability,[11]; first compound 0.02 µM,0.72
same,relative viability,[11]; first compound 0.2 µM,0.716
same,relative viability,[11]; first compound 0.6325 µM,0.725
same,relative viability,[11]; first compound 2 µM,0.563
same,relative viability,[12]; first compound 0.02 µM,0.806
same,relative viability,[12]; first compound 0.2 µM,0.651
same,relative viability,[12]; first compound 0.6325 µM,0.874
same,relative viability,[12]; first compound 2 µM,0.533
same,relative viability,[13]; first compound 0.02 µM,0.754
same,relative viability,[13]; first compound 0.2 µM,0.653
same,relative viability,[13]; first compound 0.6325 µM,0.677
same,relative viability,[13]; first compound 2 µM,0.744
same,relative viability,[14]; first compound 0.02 µM,0.816
same,relative viability,[14]; first compound 0.2 µM,0.694
same,relative viability,[14]; first compound 0.6325 µM,0.896
same,relative viability,[14]; first compound 2 µM,0.815
same,relative viability,[15]; first compound 0.02 µM,0.696
same,relative viability,[15]; first compound 0.2 µM,0.564
same,relative viability,[15]; first compound 0.6325 µM,0.54
same,relative viability,[15]; first compound 2 µM,0.95
same,relative viability,[16]; first compound 0.02 µM,0.8
same,relative viability,[16]; first compound 0.2 µM,0.6
same,relative viability,[16]; first compound 0.6325 µM,0.611
same,relative viability,[16]; first compound 2 µM,0.633
same,relative viability,[17]; first compound 0.02 µM,0.774
same,relative viability,[17]; first compound 0.2 µM,0.747
same,relative viability,[17]; first compound 0.6325 µM,0.782
same,relative viability,[17]; first compound 2 µM,0.833
same,relative viability,[18]; first compound 0.02 µM,0.73
same,relative viability,[18]; first compound 0.2 µM,0.744
same,relative viability,[18]; first compound 0.6325 µM,0.702
same,relative viability,[18]; first compound 2 µM,0.37
same,relative viability,[19]; first compound 0.02 µM,0.84
same,relative viability,[19]; first compound 0.2 µM,0.731
same,relative viability,[19]; first compound 0.6325 µM,0.913
same,relative viability,[19]; first compound 2 µM,0.94
same,relative viability,[20]; first compound 0.02 µM,0.735
same,relative viability,[20]; first compound 0.2 µM,0.591
same,relative viability,[20]; first compound 0.6325 µM,0.677
same,relative viability,[20]; first compound 2 µM,0.604
same,relative viability,[21]; first compound 0.02 µM,1.17
same,relative viability,[21]; first compound 0.2 µM,1.05
same,relative viability,[21]; first compound 0.6325 µM,1.17
same,relative viability,[21]; first compound 2 µM,0.83

# Reference: the supplement of paper PMC10307832
